Data reported in US9657002B2, “Oxindole derivatives carrying an oxetane substituent and use thereof for treating vassopressin-related diseases” (AbbVie Deutschland GmbH & Co. KG, priority 2013, dated 2017).

Target: human vasopressin V1a receptor (Homo sapiens, UniProt P37288)
Assay: Vasopressin V1a receptor binding assay
Details: selectivity quotient, human V1a vs human V1b

Sequence of human vasopressin V1a receptor (P37288 whole entry): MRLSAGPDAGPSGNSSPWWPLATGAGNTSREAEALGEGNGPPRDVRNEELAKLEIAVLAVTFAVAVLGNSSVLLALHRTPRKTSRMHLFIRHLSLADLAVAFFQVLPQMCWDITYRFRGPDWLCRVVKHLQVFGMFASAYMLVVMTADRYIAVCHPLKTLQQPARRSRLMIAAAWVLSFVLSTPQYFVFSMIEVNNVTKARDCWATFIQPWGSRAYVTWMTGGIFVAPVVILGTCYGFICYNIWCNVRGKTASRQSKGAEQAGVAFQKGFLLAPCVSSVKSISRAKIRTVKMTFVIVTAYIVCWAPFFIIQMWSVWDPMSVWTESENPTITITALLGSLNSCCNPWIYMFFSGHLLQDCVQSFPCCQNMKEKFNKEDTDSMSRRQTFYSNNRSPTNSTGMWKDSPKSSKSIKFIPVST

| Ki(h-V1a)/Ki(h-V1b) | Structure (SMILES) |
| --- | --- |
| +++ (>75) | CCOc1ncccc1[C@]1(NC(=O)N2CCN(C3CCN(C4COC4)CC3)CC2)C(=O)N(S(=O)(=O)c2ccc(OC)cc2OC)c2ccc(C#N)cc21 [Example 1, (S)—N-(5-cyano-1-((2,4-dimethoxyphenyl)sulfonyl)-3-(2-ethoxypyridin-3-yl)-2-oxoindolin-3-yl)-4-(1-(oxetan-3-yl)piperidin-4-yl)piperazine-1-carboxamide] |
| +++ (>75) | CCOc1ncccc1[C@]1(NC(=O)N2CCN(C3CCN(C4COC4)CC3)CC2)C(=O)N(S(=O)(=O)c2ccc(OC)cc2F)c2ccc(C#N)cc21 [Example 6, (S)—N-(5-cyano-3-(2-ethoxypyridin-3-yl)-1-((2-fluoro-4-methoxyphenyl)sulfonyl)-2-oxoindolin-3-yl)-4-(1-(oxetan-3-yl)piperidin-4-yl)piperazine-1-carboxamide] |
| +++ (>75) | CCOc1ncccc1[C@]1(NC(=O)N2CCN(C3CCN(C4COC4)CC3)CC2)C(=O)N(S(=O)(=O)c2cc(F)c(OC)cc2OC)c2ccc(C#N)cc21 [Example 8, (S)—N-(5-cyano-3-(2-ethoxypyridin-3-yl)-1-((5-fluoro-2,4-dimethoxyphenyl)sulfonyl)-2-oxoindolin-3-yl)-4-(1-(oxetan-3-yl)piperidin-4-yl)piperazine-1-carboxamide] |
| +++ (>75) | CCOc1ncccc1[C@]1(NC(=O)N2CCN(C3CCN(C4COC4)CC3)CC2)C(=O)N(S(=O)(=O)c2ccc(OC)cc2OC)c2cc(F)c(F)cc21 [Example 9, (S)—N-(1-((2,4-dimethoxyphenyl)sulfonyl)-3-(2-ethoxypyridin-3-yl)-5,6-difluoro-2-oxoindolin-3-yl)-4-(1-(oxetan-3-yl)piperidin-4-yl)piperazine-1-carboxamide] |
| +++ (>75) | CCOc1ncccc1[C@]1(NC(=O)N2CCN(C3CCN(C4COC4)CC3)CC2)C(=O)N(S(=O)(=O)c2ccc(OC)cc2OC)c2ccc(Cl)cc21 [Example 10, (S)—N-(5-chloro-1-((2,4-dimethoxyphenyl)sulfonyl)-3-(2-ethoxypyridin-3-yl)-2-oxoindolin-3-yl)-4-(1-(oxetan-3-yl)piperidin-4-yl)piperazine-1-carboxamide] |
| ++ (25-75) | CCOc1ncccc1[C@]1(NC(=O)N2CCC(N3CCN(C4COC4)CC3)CC2)C(=O)N(S(=O)(=O)c2ccc(C#N)cc2)c2ccc(C#N)cc21 [Example 12, (S)—N-(5-cyano-1-((4-cyanophenyl)sulfonyl)-3-(2-ethoxypyridin-3-yl)-2-oxoindolin-3-yl)-4-(4-(oxetan-3-yl)piperazin-1-yl)piperidine-1-carboxamide] |
| +++ (>75) | CCOc1ncccc1[C@]1(NC(=O)N2CCC(N3CCN(C4COC4)CC3)CC2)C(=O)N(S(=O)(=O)c2ccc(OC)cc2)c2ccc(C#N)cc21 [Example 13, (S)—N-(5-cyano-3-(2-ethoxypyridin-3-yl)-1-((4-methoxyphenyl)sulfonyl)-2-oxoindolin-3-yl)-4-(4-(oxetan-3-yl)piperazin-1-yl)piperidine-1-carboxamide] |
| +++ (>75) | COc1ccc(S(=O)(=O)N2C(=O)C(NC(=O)N3CCN(C4CCN(C5COC5)CC4)CC3)(c3cccnc3OC)c3cc(C#N)ccc32)c(OC)c1 (stereo not drawn) [Example 15, N-(5-cyano-1-((2,4-dimethoxyphenyl)sulfonyl)-3-(2-methoxypyridin-3-yl)-2-oxoindolin-3-yl)-4-(1-(oxetan-3-yl)piperidin-4-yl)piperazine-1-carboxamide] |
| ++ (25-75) | CCOc1ncccc1[C@]1(NC(=O)N2CCC(N3C[C@@H]4C[C@H]3CN4C3COC3)CC2)C(=O)N(S(=O)(=O)c2ccc(OC)cc2OC)c2ccc(C#N)cc21 [Example 17, N—((S)-5-cyano-1-((2,4-dimethoxyphenyl)sulfonyl)-3-(2-ethoxypyridin-3-yl)-2-oxoindolin-3-yl)-4-((1S,4S)-5-(oxetan-3-yl)-2,5-diazabicyclo[2.2.1]heptan-2-yl)piperidine-1-carboxamide] |
